Experimental data from publication PMC9386499, “Integrated regulation of PKA by fast and slow neurotransmission in the nucleus accumbens controls plasticity and stress responses” (The Journal of Biological Chemistry, 2022).
No end group written: not given here.

Columns and labels:
D1R neurons (NAc) = assay: Whole-cell patch-clamp recordings of D1R-expressing neurons (EPSP, LTP, AMPA/NMDA ratio); type: cell-based, mouse; settings: NBQX 10 μM after APV 20 μM
Source text: For whole-cell recordings, Drd2-EGFP FVB mice were deeply anesthetized and transcardially perfused with ice-cold cutting artificial cerebrospinal fluid containing (in mM): 87 NaCl, 2.5 KCl, 0.5 CaCl2, 7 MgCl2, 1.25 NaH2PO4, 25 NaHCO3, 25 glucose, and 75 sucrose, bubbled with 95% O2/5% CO2. Parasagittal slices were cut transversely at 300 μm using a vibrating blade microtome (VT1200S, Leica Microsystems). Slices were transferred to normal saline solution containing (in mM): 119 NaCl, 2.5 KCl, 2.5 CaCl2, 1.3 MgCl2, 1.3 NaH2PO4, 26 NaHCO3, and 20 glucose at 32 °C for 30 min and then allowed to recover for 1 h at room temperature before recordings. Individual slices were transferred to a submerged chamber mounted on a fixed-stage upright microscope (Zeiss Axioskop FS) and continuously perfused at 30 °C with normal saline solution containing (in μM): 0 MgCl2, 50 picrotoxin, and 10 glycine. GFP-negative D1 cells were visualized by infrared differential interference contrast microscopy with a water-immersion 63X objective (0.9 NA, Zeiss). Current clamp recordings were performed with unpolished pipettes containing (in mM): 140 K-gluconate, 5 KCl, 2 MgCl2, 10 Hepes, 4 Mg-ATP, 0.3 Na-GTP, 10 Na2-creatine phosphate, 0.2 Na-EGTA, 290 to 300 mOsm, pH 7.3 (final resistance, 3-4MΩ). LTP of EPSPs was induced by HFS in control and RIIβ siP-treated D1 cells (at −70 mV). […]

phospho-Thr69 RIIβ = assay: Slice pharmacology, immunoblot of phospho-Thr69 RIIβ; type: cell-based, rat
Procedure: (§1) Slice pharmacology was conducted as previously described ([62]). Briefly, striatum was microdissected from 350 μ coronal rat brain slices, equilibrated for 1 h, 30 °C in Kreb’s buffer with 10 μg/ml adenosine deaminase (Roche). […] Briefly, conditions included low Mg^2+ (0.5 mM) and a 30 min tissue recovery in drug-free buffer prior to harvest. Tissue was snap-frozen on dry ice. Immunoblotting was as previously described ([63]) and analyzed using Image J software (NIH). Data from immunoblots with phosphorylation-specific antibodies were normalized to total protein. Antibodies used included those for PKA regulatory subunits (BD Biosciences Cat# 610626, RRID: AB_397958; BD Biosciences Cat# 610609 RRID:AB_397943; BD Biosciences Cat# 612242 RRID:AB_399565), phospho-S114 RIIβ (BD Biosciences Cat# 612550 RRID:AB_399845), and NMDAR1 (BD Biosciences Cat# 556308 RRID:AB_396353), phospho-S845 GluA1 (PhosphoSolutions Cat# p1160-845 RRID:AB_2492128) and phospho-T34 DARPP-32 (PhosphoSolutions Cat# p1025-34 RRID:AB_2492068), and total GluA1 (Millipore Cat# 05-855R RRID:AB_1587070). Total DARPP-32 antibody was from H. Hemmings (Weill Cornell Medical College).

phospho-Ser114 RIIβ = assay: Slice pharmacology, immunoblot of phospho-Ser114 RIIβ; type: cell-based, rat; settings: striatal slices, NMDA 50 μM, 5 min; *p < 0.05, n = 4
Procedure: as §1

[1] = tested on: cortico-ventral striatal synapses (NAc); assay: Cortico-ventral striatal field recordings (fEPSP, LTP, I/O, PPR); type: cell-based, rat; settings: slices
Procedure: Adult rats were anaesthetized by isoflurane (Piramal Healthcare), and brains were placed in ice-cold sucrose saline solution (4 °C) containing (in mM): 87 NaCl, 75 Sucrose, 2.5 KCl, 1.25 NaH2PO4, 7 MgCl2, 0.5 CaCl2, 25 NaHCO3, and 10 glucose (pH 7.4; saturated with […]). Parasagittal vibratome slices (350 μ thick) containing prefrontal cortex and NAc core were transferred into saline solution containing 125 NaCl, 2.5 KCl, 1.25 NaH2PO4, 1.3 MgCl2, 2 CaCl2, 25 NaHCO3, and 25 glucose (pH 7.4; saturated with […]) and maintained for 20 min at 30 °C, then transferred to room temperature (22–25 °C) and allowed 1 h recovery. […]
Extracellular recordings: fEPSPs were obtained at 25 °C in the presence of the GABAA antagonist (SR95531, Gabazine, 2 μM) and were evoked by square current pulses (0.2 ms) at 0.033 Hz with a bipolar stimulation electrode (FHC) placed at the border of corpus callosum separated by ∼300 to 500 μ from the recording electrode. […] The paired pulse ratio (PPR) paradigm was applied using different inter-stimulus intervals and PPR changes were measured as PPR = second fEPSP amplitude/first fEPSP amplitude. After recording stable baseline for at least 10 min, LTP was induced by HFS (4 trains, 100 Hz, 1 s duration, separated by 20 s). fEPSP amplitude was monitored for at least 50 min after HFS to evaluate LTP. […]

rats = assay: Forced swim test (FST) after intra-accumbens infusion; type: in vivo, rat; settings: ketamine 2 µg in 1 µl, subanesthetic, bilateral intra-accumbal
Procedure: Rats were anesthetized with isoflurane and placed in a stereotaxic frame (Kopf Instruments). Bilateral cannulas (3 mm center-to-center distance, cut 8 mm below pedestal, Plastics One) were placed in NAc core (anterior-posterior to bregma +1.5 mm, medial/lateral ±1.5 mm, depth −6.8 mm). Peptides were bilaterally infused 1 week later in awake and mobile animals. Injection volume was 1 μl of peptide (100 μM in PBS, 10% DMSO, per cerebral hemisphere). Animals were allowed to recover for 1 h prior to behavioral testing. Accuracy was confirmed by infusion of methylene blue dye or direct visualization of cannula tracts postbehavioral testing.
The Porsolt FST was conducted as described previously ([64]). Briefly, one-trial forced swim was used for acute stress. Nonsurgerized rats underwent an 8 min swim in an 8-gallon transparent water filled cylinder at 24 to 25 °C. Animals recovered in their home cages for 1 h prior to brain dissection. The NAc was then microdissected for immunoblotting. […] They were then placed in a locomotor chamber, and locomotor activity was monitored for 30 min in circular donut-shaped locomotor chambers in the dark with a computer-monitored infrared photobeam system (MED-PC, Med Associates). […] The last 6 min of the test were scored for latency to immobility and time immobile, with immobility defined as the time animals spent completely motionless.

Cdk5 = assay: In vitro phosphorylation of RIIβ by Cdk5 (stoichiometry); type: biochemical; settings: saturating conditions, 32P incorporation
Procedure: (§2) Rat recombinant RIIβ was derived as a C-terminal 6XHis fusion by Ni-NTA affinity purification using standard pET vector methods (Novagen). RIIβ was phosphorylated in vitro by Cdk5 or PKA using standard conditions ([55]). Cdk5/p25 was from Millipore, and PKA was from NEB. 32P incorporation was quantitated by PhosphorImager analysis. All kinetic analyses were conducted under empirically defined linear conditions. PKA activity was measured by phosphorylation of recombinant inhibitor-1 ([56]) or DARPP-32 ([14]). For phosphorylation site identification, preparatively phosphorylated RIIβ was subjected to nano-liquid chromatography tandem mass spectrometry as previously described ([57]). Digests were redissolved in 0.1% trifluoracetic acid and loaded onto a ZipTip with C18 resin (Millipore) for purification. Analysis was conducted using nanoelectrospray-QSTAR Pulsar I quadrupole time-of-flight tandem mass spectrometry (MDS Proteomics). Structural model of AKAP/RIIβ dimer interaction was based on published data of AKAP (PDB: 2HWN) ([24]) and RIIβ (PDB: 1CX4) ([58]).

PKA [2] = assay: PKA inhibition curves for WT versus S114D RIIβ (in vitro); type: biochemical; settings: means ± S.E.M., n = 3
Procedure: as §2

[3] = target: T1, Cdk5-dependent phosphorylation of RIIβ (Homo sapiens, UniProt Q00535); assay: Inhibition of Cdk5-dependent phosphorylation of RIIβ in vitro by siP; type: biochemical; settings: means ± S.E.M.
T1 construct: purchased Millipore
Procedure: as §2

PKA [4] = assay: PKA inhibition by dephospho- vs. phospho-T69 RIIβ; type: biochemical; settings: in vitro, n=4
Procedure: as §2

T1 sequence (Q00535 whole entry): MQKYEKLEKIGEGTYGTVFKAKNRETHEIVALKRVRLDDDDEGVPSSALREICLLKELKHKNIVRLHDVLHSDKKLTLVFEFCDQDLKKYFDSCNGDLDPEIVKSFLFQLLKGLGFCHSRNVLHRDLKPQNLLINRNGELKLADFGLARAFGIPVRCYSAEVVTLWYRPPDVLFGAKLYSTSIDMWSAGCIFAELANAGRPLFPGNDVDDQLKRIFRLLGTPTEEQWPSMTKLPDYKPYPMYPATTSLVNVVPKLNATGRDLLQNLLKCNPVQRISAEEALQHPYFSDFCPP
T1 sequence (Q15078 99-307 partner limits assumed): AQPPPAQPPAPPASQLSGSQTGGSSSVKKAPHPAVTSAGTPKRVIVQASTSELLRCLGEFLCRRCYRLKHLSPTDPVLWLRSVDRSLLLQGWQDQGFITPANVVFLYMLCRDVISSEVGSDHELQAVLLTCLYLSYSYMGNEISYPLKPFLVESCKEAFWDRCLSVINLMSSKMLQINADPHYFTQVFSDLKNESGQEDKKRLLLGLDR

NS(=O)(=O)c1cccc2c1c([N+](=O)[O-])cc1nc(O)c(O)nc12 [NBQX]
effect on EPSP responses, D1R neurons (D1R neurons (NAc)): ablated EPSP responses

CN[C@H](CC(=O)O)C(=O)O [NMDA, N-methyl-D-aspartate]
phospho-Thr69 RIIβ, NMDA (phospho-Thr69 RIIβ; striatal slices, NMDA 50 μM, 5 min, *p < 0.05, n = 4): strongly reduced the phosphorylation state of Thr69
phospho-Thr69 RIIβ, LTP-like conditions (phospho-Thr69 RIIβ; ventral striatal slices, low Mg2+, NMDA 25 μM, 5 min and/or dopamine 10 μM, 15 min, 30 min delay after treatment, n = 5 to 6): decrease in phospho-Thr69 RIIβ
phospho-Ser114 RIIβ, NMDA (phospho-Ser114 RIIβ): PKA-dependent phosphorylation at Ser114 was increased

Oc1cc2c(c(Cl)c1O)CCNCC2c1ccccc1 (centres unmarked) [SKF81297]
LTP (HFS-induced), D1 agonist ([1]; SKF81297 2 µM, 15 min bath application, #p < 0.05 control vs SKF, n = 7): enhanced

CNC1(c2ccccc2Cl)CCCCC1=O (centres unmarked) [ketamine]
RIIβ siP effects compared with ketamine in FST (rats): closely mimicked

C=C1[C@@H](O)[C@@H]2O[C@]3(CC[C@H](/C=C/[C@@H](C)[C@@H]4CC(C)=C[C@@]5(O[C@H](C[C@@](C)(O)C(=O)O)CC[C@H]5O)O4)O3)CC[C@H]2O[C@@H]1[C@@H](O)C[C@H](C)[C@H]1O[C@@]2(CCCCO2)CC[C@H]1C [okadaic acid]
basal phospho-Thr69 RIIβ, okadaic acid 200 nM (phospho-Thr69 RIIβ; striatal slices, 200 nM, 1 h (selective PP2A inhibition), *p < 0.05, n = 4-5): increased
basal phospho-Thr69 RIIβ, okadaic acid 1 μM (phospho-Thr69 RIIβ; striatal slices, 1 μM, 1 h (PP1 inhibition), **p < 0.01, n = 4-5): increased
effect on NMDA-induced reduction of phospho-Thr69 RIIβ (phospho-Thr69 RIIβ; striatal slices, NMDA 25 µM, 5 min, cyclosporin A 10 µM, 1 h or okadaic acid 1 µM, 1 h, n = 4-6): attenuated the effect of NMDA

RIIβ: Rat recombinant RIIβ, C-terminal 6XHis fusion; PKA regulatory subunit
maximal stoichiometry of phosphorylation by Cdk5 (Cdk5): 0.6 mol PO4/mol of substrate
IC50 (PKA [2]): 0.0015 ± 0.0003 µM

RQIKIWFQNRRMKWKK-AAGAGSGAVAFKGANGEA [scrambled siP, penetratin-tagged scramble control peptide]
fEPSP amplitude after HFS (LTP) ([1]; 10 μM for 15 min, washout 25 min, maintained through 50 min following HFS, 25 °C, n = 5): 0.31 ± 0.03 mV

RQIKIWFQNRRMKWKKAGAAAGGGTPSKGVNFAEE [RIIβ siP]
IC50 [3]: 7.14 ± 2.28 µM

Thr69 RIIβ: RIIβ phosphorylated at Thr69 by Cdk5
effect of Thr69 phosphorylation on inhibition of PKA catalytic activity by RIIβ (PKA [4]): did not alter the inhibition of PKA catalytic activity
